The data set in a line: Particle size distribution by Malvern Mastersizer S (volume basis). It is filed as physicochemical. The note with it: first analysis after formation, diluted with water. The protocol: For the examples containing a substantial fraction of nanoparticles <100 nm in diameter, photon correlation spectroscopy was performed on a Brookhaven with an ALV5000 multiple tau correlator to determine the average particle size using a second order cumulant fit. In accordance with standard practice, the viscosity and index of refraction of the solvent at a volume percentage the same as after mixing were input as properties of the fluid. A Malvern Mastersizer S version 2.18 was also used to determine the particle size distribution based on volume, or similar to a weight. Likewise, the average particle size was based on volume or mass, D[4,3]. The data analysis used a polydisperse model and the Standard-Wet (3OHD) presentation that assumes the particle is suspended in water. Some samples were diluted with water for analysis. For all processing conditions, the water used was purified by RO and filtered and the temperature is given within 2° C. The polymer blocks were nominal molecular weight with the nomenclature (1000) describing a block nominally of 1000 g/mole. The blocks could have contained minor impurities (<10% by weight and typically <5% by weight) due to the method of synthesis.

Consider `CC1=C(/C=C/C(C)=C/C=C/C(C)=C/C=C/C=C(C)/C=C/C=C(C)/C=C/C2=C(C)CCCC2(C)C)C(C)(C)CCC1` [β-carotene], for which the “Mean size D[4,3]” value turned out to be 120 μm and the “Yield of nanoparticles below 1060 nm” value worked out at 9%.

The values are drawn from patent publication US9956179B2, “Process and apparatuses for preparing nanoparticle compositions with amphiphilic copolymers and their use” (The Trustees of Princeton University, priority 2001, dated 2018).
